Reference: the supplement of paper PMC10307832

Columns and labels:
Test in all cases: relative viability (nuclei count vs DMSO), 5 days (fraction); higher = more cells survive
[1] = compound: CN(C)C[C@@H]1CCn2cc(c3ccccc32)C2=C(C(=O)NC2=O)c2cn(c3ccccc23)CCO1 [Ruboxistaurin] + CS(=O)(=O)CCNCc1ccc(-c2ccc3ncnc(Nc4ccc(OCc5cccc(F)c5)c(Cl)c4)c3c2)o1 [Lapatinib] (partner 2 µM)
Procedure, shortened: (§1)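 Lung cancer cell lines were pin-tool dosed in 1536-well plates on the day after seeding, with either a lone drug or a fixed anchor-drug dose plus five library-drug doses (not always all listed) in √10 steps. Nuclei were counted on 4× images after 5 days. Relative viability is the ratio of treated-well to vehicle-well nuclei counts, with each value a median of duplicate plates.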

[2] = compound: CN(C)C[C@@H]1CCn2cc(c3ccccc32)C2=C(C(=O)NC2=O)c2cn(c3ccccc23)CCO1 [Ruboxistaurin] + CC(=O)c1c(C)c2cnc(Nc3ccc(N4CCNCC4)cn3)nc2n(C2CCCC2)c1=O [Palbociclib] (partner 0.5 µM)
Procedure, shortened: as §1

[3] = compound: CN(C)C[C@@H]1CCn2cc(c3ccccc32)C2=C(C(=O)NC2=O)c2cn(c3ccccc23)CCO1 [Ruboxistaurin] + N=C(N)NC(=N)NCCc1ccccc1 [Phenformin] (partner 250 µM)
Procedure, shortened: as §1

[4] = compound: CN(C)C[C@@H]1CCn2cc(c3ccccc32)C2=C(C(=O)NC2=O)c2cn(c3ccccc23)CCO1 [Ruboxistaurin] + O=C(c1cc(Cc2n[nH]c(=O)c3ccccc23)ccc1F)N1CCN(C(=O)C2CC2)CC1 [Olaparib] (partner 8 µM)
Procedure, shortened: as §1

[5] = compound: CN(C)C[C@@H]1CCn2cc(c3ccccc32)C2=C(C(=O)NC2=O)c2cn(c3ccccc23)CCO1 [Ruboxistaurin] + Nc1nc2[nH]cc(CCc3ccc(C(=O)N[C@@H](CCC(=O)O)C(=O)O)cc3)c2c(=O)[nH]1 [Pemetrexed] (partner 0.2 µM)
Procedure, shortened: as §1

Cell Line	relative viability ([1]; first compound 0.08 µM)	relative viability ([1]; first compound 0.8 µM)	relative viability ([1]; first compound 2.53 µM)	relative viability ([1]; first compound 8 µM)	relative viability ([2]; first compound 0.08 µM)	relative viability ([2]; first compound 0.8 µM)	relative viability ([2]; first compound 2.53 µM)	relative viability ([2]; first compound 8 µM)	relative viability ([3]; first compound 0.08 µM)	relative viability ([3]; first compound 0.8 µM)	relative viability ([3]; first compound 2.53 µM)	relative viability ([3]; first compound 8 µM)	relative viability ([4]; first compound 0.08 µM)	relative viability ([4]; first compound 0.8 µM)	relative viability ([4]; first compound 2.53 µM)	relative viability ([4]; first compound 8 µM)	relative viability ([5]; first compound 0.08 µM)	relative viability ([5]; first compound 0.8 µM)	relative viability ([5]; first compound 2.53 µM)	relative viability ([5]; first compound 8 µM)
NCI-H650	1.22	0.764	1.38	0.491	0.339	0.337	0.377	0.383	0.51	0.452	0.488	0.464	0.462	0.352	0.47	0.425	0.995	0.948	0.981	0.817
NCI-H661	0.593	0.451	0.639	0.623	0.424	0.416	0.437	0.46	0.253	0.268	0.297	0.29	0.844	0.717	0.795	0.81	0.932	0.873	0.921	0.874
NCI-H838	1.07	0.813	0.929	0.875	0.234	0.19	0.215	0.213	0.628	0.467	0.592	0.454	0.867	0.751	0.838	0.641	0.248	0.222	0.222	0.225
NCI-H1355	1.06	0.916	0.933	0.814	0.399	0.338	0.412	0.418	0.472	0.39	0.468	0.451	0.763	0.712	0.734	0.742	1.08	1	1.02	1.02
NCI-H1395	1.01	1.06	1.2	0.879	0.657	0.579	0.63	0.553	0.502	0.415	0.525	0.498	0.465	0.397	0.466	0.474	1.04	0.768	0.917	0.782
NCI-H1437	0.934	0.675	0.751	0.819	0.337	0.302	0.303	0.308	0.328	0.278	0.298	0.322	0.661	0.613	0.666	0.712	0.309	0.299	0.315	0.313
NCI-H1650	1.03	0.694	1.09	0.829	0.416	0.324	0.455	0.372	0.542	0.387	0.4	0.287	0.854	0.709	0.907	0.981	0.425	0.362	0.373	0.454
NCI-H1651	0.828	0.697	0.843	0.717	0.528	0.482	0.531	0.494	0.342	0.312	0.332	0.319	0.178	0.193	0.191	0.182	0.612	0.586	0.585	0.528
